# Measured values taken from PubChem BioAssay AID330 (DTP/NCI, 2004).
# Several values for one entry are separate records, joined by “and”; a condition that tells them apart may be missing. Equal values may be shown once. Toxic doses and inconclusive results are not listed. Peptide text beside a SMILES is read from it. * marks the point of attachment. Tos = Cc1ccc(S(=O)(=O)*)cc1; Bn = c1ccc(C*)cc1
# Test system: P388 leukemia ip, CD2F1 mice, survival T/C
# Experiment: NCI In Vivo Anticancer Drug Screen. Data for tumor model P388 Leukemia (intraperitoneal) in CD2F1 (CDF1) mice
# Conditions: endpoint: median survival time, higher = longer survival
# How it was run: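 Mice carrying the transplanted tumor received test compound or vehicle. Survival was recorded in each group, and the value is the treated-group measurement divided by that of the vehicle-treated control group.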
# [1] = dose: 12.5 mg/kg/injection, schedule: Q01DX009 (ip), vehicle: saline
# [2] = dose: 25.0 mg/kg/injection, schedule: Q01DX009 (ip), vehicle: saline with Tween-80
# [3] = dose: 25.0 mg/kg/injection, schedule: Q01DX009 (ip), vehicle: saline
# [4] = dose: 50.0 mg/kg/injection, schedule: Q01DX005 (ip), vehicle: saline with Tween-80
# [5] = dose: 100.0 mg/kg/injection, schedule: Q01DX005 (ip), vehicle: saline with Tween-80
# [6] = dose: 200.0 mg/kg/injection, schedule: Q01DX005 (ip), vehicle: saline with Tween-80
# [7] = dose: 50.0 mg/kg/injection, schedule: Q01DX009 (ip), vehicle: saline with Tween-80
# [8] = dose: 100.0 mg/kg/injection, schedule: Q01DX009 (ip), vehicle: saline with Tween-80
# [9] = dose: 200.0 mg/kg/injection, schedule: Q01DX009 (ip), vehicle: saline with Tween-80
# [10] = dose: 50.0 mg/kg/injection, schedule: Q01DX009 (ip), vehicle: saline
# [11] = dose: 100.0 mg/kg/injection, schedule: Q01DX009 (ip), vehicle: saline
# [12] = dose: 60.0 mg/kg/injection, schedule: Q01DX005 (ip), vehicle: saline with Tween-80
# [13] = dose: 120.0 mg/kg/injection, schedule: Q01DX005 (ip), vehicle: saline with Tween-80
compound,measurement,setting,value
C=C1C(=O)OC2CCC3OC(C)(C)OC3C12 (stereo unspecified),T/C,"dose: 12.5 mg/kg/injection, schedule: Q01DX009 (ip), vehicle: DMSO",95 % of control
same,T/C,"dose: 25.0 mg/kg/injection, schedule: Q01DX009 (ip), vehicle: DMSO",122 % of control
same,T/C,"dose: 50.0 mg/kg/injection, schedule: Q01DX009 (ip), vehicle: DMSO",101 % of control
same,T/C,"dose: 100.0 mg/kg/injection, schedule: Q01DX009 (ip), vehicle: DMSO",110 % of control
same,T/C,"dose: 200.0 mg/kg/injection, schedule: Q01DX009 (ip), vehicle: DMSO",113 % of control
NNC(=S)N/N=C/c1ccccn1,T/C,"dose: 0.78 mg/kg/injection, schedule: Q01DX009 (ip), vehicle: saline",99 % of control
same,T/C,"dose: 1.56 mg/kg/injection, schedule: Q01DX009 (ip), vehicle: saline",102 % of control and 117 % of control
same,T/C,"dose: 1.56 mg/kg/injection, schedule: Q01DX009 (ip), vehicle: suspension in saline",107 % of control
same,T/C,"dose: 3.12 mg/kg/injection, schedule: Q01DX009 (ip), vehicle: suspension in saline",109 % of control
same,T/C,"dose: 6.25 mg/kg/injection, schedule: Q01DX009 (ip), vehicle: saline with Tween-80",100 % of control
same,T/C,"dose: 6.25 mg/kg/injection, schedule: Q01DX009 (ip), vehicle: saline",110 % of control
same,T/C,"dose: 6.25 mg/kg/injection, schedule: Q01DX009 (ip), vehicle: suspension in saline",111 % of control
same,T/C,[1],150 % of control
same,T/C,"dose: 16.5 mg/kg/injection, schedule: Q01DX009 (ip), vehicle: saline sonified",122 % of control
same,T/C,[2],150 % of control
same,T/C,[3],154 % of control and 170 % of control
CCNCc1cc(Nc2nc(NC3CCC(N(C)C)CC3)c3ccccc3n2)ccc1OC (stereo unspecified),T/C,"dose: 5.0 mg/kg/injection, schedule: Q01DX009 (ip), vehicle: saline sonified",100 % of control
same,T/C,"dose: 10.0 mg/kg/injection, schedule: Q01DX009 (ip), vehicle: saline sonified",109 % of control
same,T/C,"dose: 20.0 mg/kg/injection, schedule: Q01DX009 (ip), vehicle: saline sonified",113 % of control
CC(CC(C)C1CO1)C(=O)C(C)S(=O)(=O)c1ccccc1 (stereo unspecified) (tested in a mixture with another compound),T/C,[4],104 % of control
same,T/C,[5],88 % of control
same,T/C,[6],102 % of control
COC(=O)/C=C(\C)NC1CC(OC2C[C@](O)(C(C)=O)Cc3c(O)c4c(c(O)c32)C(=O)c2c(OC)cccc2C4=O)OC(C)C1O (stereo partly specified),T/C,"dose: 6.25 mg/kg/injection, schedule: Q04DX003 (ip), vehicle: saline with Tween-80",105 % of control
same,T/C,"dose: 12.5 mg/kg/injection, schedule: Q04DX003 (ip), vehicle: saline with Tween-80",110 % of control and 113 % of control
same,T/C,"dose: 50.0 mg/kg/injection, schedule: Q04DX003 (ip), vehicle: saline with Tween-80",96 % of control
NC(=O)c1ccc(-c2csc(=S)[nH]2)s1,T/C,[7],100 % of control and 105 % of control
same,T/C,[8],101 % of control and 108 % of control
same,T/C,[9],96 % of control
c1ccc(C2SC3=NCCCN3Cc3ccccc32)cc1 (stereo unspecified),T/C,[1],104 % of control
same,T/C,[3],109 % of control
same,T/C,[10],104 % of control and 97 % of control
Cc1ccc(S(=O)(=O)NC(CSCc2ccccc2)C(=O)NC(Cc2ccc(O)cc2)C(=O)O)cc1 (stereo unspecified) (Tos-Cys(Bn)-Tyr-OH; configuration not given here),T/C,[4],103 % of control
same,T/C,[5],99 % of control
same,T/C,[6],99 % of control
C=C[C@@](C)(O)CC/C=C(/C)CCC=C(C)C,T/C,[2],110 % of control
same,T/C,[7],110 % of control
same,T/C,[8],110 % of control
same,T/C,"dose: 100.0 mg/kg/injection, schedule: Q04DX003 (ip), vehicle: saline",109 % of control
same,T/C,"dose: 200.0 mg/kg/injection, schedule: Q04DX003 (ip), vehicle: saline",100 % of control
same,T/C,"dose: 400.0 mg/kg/injection, schedule: Q04DX003 (ip), vehicle: saline",113 % of control
Cc1cc2cc3c4c(nnc(NN)c4c2o1)-c1ccccc1CC3,T/C,"dose: 3.75 mg/kg/injection, schedule: Q01DX005 (ip), vehicle: saline with Tween-80",99 % of control
same,T/C,"dose: 7.5 mg/kg/injection, schedule: Q01DX005 (ip), vehicle: saline with Tween-80",101 % of control
same,T/C,"dose: 15.0 mg/kg/injection, schedule: Q01DX005 (ip), vehicle: saline with Tween-80",99 % of control
O=C1c2cccc3cccc(c23)C(=O)N1CCc1ccccn1,T/C,[4],107 % of control
same,T/C,[5],98 % of control
O=C(Nc1cc(Cl)ccc1C(=O)O)c1cccc(C[n+]2ccccc2)c1,T/C,"dose: 12.5 mg/kg/injection, schedule: Q01DX005 (ip), vehicle: saline with Tween-80",91 % of control
same,T/C,"dose: 25.0 mg/kg/injection, schedule: Q01DX005 (ip), vehicle: saline with Tween-80",102 % of control
same,T/C,[4],102 % of control
COc1cc2cc(=O)n(N)c(C)c2cc1OC,T/C,[10],108 % of control
same,T/C,[11],106 % of control
same,T/C,"dose: 200.0 mg/kg/injection, schedule: Q01DX009 (ip), vehicle: saline",99 % of control
CCOP1(=O)CCCCN1Cc1ccccc1 (stereo unspecified),T/C,[10],100 % of control
same,T/C,[11],103 % of control
Nc1cccc(CCCCc2ccc(Cl)c(S(=O)(=O)F)c2)c1,T/C,"dose: 50.0 mg/kg/injection, schedule: Q01DX009 (ip), vehicle: saline sonified",86 % of control
same,T/C,"dose: 100.0 mg/kg/injection, schedule: Q01DX009 (ip), vehicle: saline sonified",86 % of control
same,T/C,"dose: 200.0 mg/kg/injection, schedule: Q01DX009 (ip), vehicle: saline sonified",95 % of control
CCCn1c(C)nc2c([N+](=O)[O-])cc(C(F)(F)F)cc21,T/C,[12],98 % of control
same,T/C,[13],97 % of control
same,T/C,"dose: 240.0 mg/kg/injection, schedule: Q01DX005 (ip), vehicle: saline with Tween-80",99 % of control
S=C(Nc1ccccc1)SSC(Cl)(Cl)Cl,T/C,"dose: 12.5 mg/kg/injection, schedule: Q01DX009 (ip), vehicle: saline + Tween-80 + alcohol",93 % of control
same,T/C,"dose: 25.0 mg/kg/injection, schedule: Q01DX009 (ip), vehicle: saline + Tween-80 + alcohol",94 % of control
same,T/C,"dose: 50.0 mg/kg/injection, schedule: Q01DX009 (ip), vehicle: saline + Tween-80 + alcohol",109 % of control
same,T/C,[7],117 % of control
same,T/C,[8],114 % of control
C[Si]1(C)CC[Si](C)(C)OS(=O)(=O)O1,T/C,"dose: 27.5 mg/kg/injection, schedule: Q01DX005 (ip), vehicle: Klucel (hydroxypropylcellulose) (HPC)",102 % of control
same,T/C,"dose: 55.0 mg/kg/injection, schedule: Q01DX005 (ip), vehicle: Klucel (hydroxypropylcellulose) (HPC)",100 % of control
O=C(Cc1nc(-c2ccc(Cl)cc2)no1)c1ccccc1,T/C,[7],91 % of control
same,T/C,[8],87 % of control
Cc1ccc(N)c(C(O)(C(F)(F)F)C(F)(F)F)c1,T/C,[7],99 % of control
same,T/C,[8],101 % of control
Oc1ccccc1C=Nc1ccccc1N=Cc1ccccc1O.[Cu],T/C,"dose: 50.0 mg/kg/injection, schedule: Q01DX005 (ip), vehicle: Klucel (hydroxypropylcellulose) (HPC)",99 % of control
same,T/C,"dose: 100.0 mg/kg/injection, schedule: Q01DX005 (ip), vehicle: Klucel (hydroxypropylcellulose) (HPC)",97 % of control
same,T/C,"dose: 200.0 mg/kg/injection, schedule: Q01DX005 (ip), vehicle: Klucel (hydroxypropylcellulose) (HPC)",90 % of control
O=C1OI(Cl)c2ccccc21,T/C,[12],104 % of control
same,T/C,[13],104 % of control
Nc1cc(S(N)(=O)=O)ccc1SSc1ccc(S(N)(=O)=O)cc1N,T/C,"dose: 50.0 mg/kg/injection, schedule: Q01DX009 (ip), vehicle: Klucel (hydroxypropylcellulose) (HPC)",94 % of control
same,T/C,[7],105 % of control
same,T/C,"dose: 100.0 mg/kg/injection, schedule: Q01DX009 (ip), vehicle: Klucel (hydroxypropylcellulose) (HPC)",112 % of control
same,T/C,[8],109 % of control
same,T/C,"dose: 200.0 mg/kg/injection, schedule: Q01DX009 (ip), vehicle: Klucel (hydroxypropylcellulose) (HPC)",112 % of control
same,T/C,[9],110 % of control
same,T/C,"dose: 400.0 mg/kg/injection, schedule: Q01DX009 (ip), vehicle: Klucel (hydroxypropylcellulose) (HPC)",121 % of control
same,T/C,"dose: 400.0 mg/kg/injection, schedule: Q01DX009 (ip), vehicle: saline with Tween-80",117 % of control
COc1ccc(N=Nc2c(O)n(-c3ccccc3Cl)c(=S)n(-c3ccc(C)cc3)c2=O)cc1,T/C,"dose: 100.0 mg/kg/injection, schedule: Q01DX001 (ip), vehicle: Klucel (hydroxypropylcellulose) (HPC)",105 % of control
same,T/C,"dose: 200.0 mg/kg/injection, schedule: Q01DX001 (ip), vehicle: Klucel (hydroxypropylcellulose) (HPC)",97 % of control
same,T/C,"dose: 400.0 mg/kg/injection, schedule: Q01DX001 (ip), vehicle: Klucel (hydroxypropylcellulose) (HPC)",102 % of control
